Assay results reported in the NIST ThermoML archive (doi:10.1016/j.jct.2009.11.014).

Details: Liquid; for viscosity: Stony Brook Scientific falling needle HPHTV-100 viscometer; for mass density: vibrating tube

CCn1cc[n+](C)c1.F[B-](F)(F)F [1-ethyl-3-methylimidazolium tetrafluoroborate]
Details | mass density [kg/m3] | viscosity [mPa·s]
282.55 K, 100 kPa | – | 67.8
282.55 K, 700 kPa | – | 69.1
282.55 K, 1700 kPa | – | 70.1
282.55 K, 2700 kPa | – | 71.6
282.55 K, 4400 kPa | – | 72.9
282.55 K, 6100 kPa | – | 74.3
282.55 K, 8200 kPa | – | 75.5
282.55 K, 10300 kPa | – | 76.1
282.55 K, 12900 kPa | – | 77.9
282.55 K, 14100 kPa | – | 79.3
283.15 K, 100 kPa | 1297.04 | –
283.15 K, 2000 kPa | 1297.83 | –
283.15 K, 4000 kPa | 1298.68 | –
283.15 K, 6000 kPa | 1299.52 | –
283.15 K, 8000 kPa | 1300.36 | –
283.15 K, 10000 kPa | 1301.22 | –
283.15 K, 12000 kPa | 1302.03 | –
283.15 K, 14000 kPa | 1302.82 | –
283.15 K, 20000 kPa | 1305.3 | –
283.15 K, 30000 kPa | 1309.33 | –
283.15 K, 40000 kPa | 1313.27 | –
283.15 K, 50000 kPa | 1317.06 | –
283.15 K, 60000 kPa | 1320.84 | –
288.15 K, 100 kPa | 1293.21 | –
288.15 K, 2000 kPa | 1294.02 | –
288.15 K, 4000 kPa | 1294.88 | –
288.15 K, 6000 kPa | 1295.72 | –
288.15 K, 8000 kPa | 1296.59 | –
288.15 K, 10000 kPa | 1297.45 | –
288.15 K, 12000 kPa | 1298.29 | –
288.15 K, 14000 kPa | 1299.08 | –
288.15 K, 20000 kPa | 1301.58 | –
288.15 K, 30000 kPa | 1305.62 | –
288.15 K, 40000 kPa | 1309.54 | –
288.15 K, 50000 kPa | 1313.39 | –
288.15 K, 60000 kPa | 1317.17 | –
293.15 K, 100 kPa | 1289.36 | –
293.15 K, 2000 kPa | 1290.17 | –
293.15 K, 4000 kPa | 1291.05 | –
293.15 K, 6000 kPa | 1291.91 | –
293.15 K, 8000 kPa | 1292.79 | –
293.15 K, 10000 kPa | 1293.63 | –
293.15 K, 12000 kPa | 1294.48 | –
293.15 K, 14000 kPa | 1295.29 | –
293.15 K, 20000 kPa | 1297.8 | –
293.15 K, 30000 kPa | 1301.86 | –
293.15 K, 40000 kPa | 1305.84 | –
293.15 K, 50000 kPa | 1309.69 | –
293.15 K, 60000 kPa | 1313.49 | –
293.75 K, 6300 kPa | – | 46.1
293.75 K, 8200 kPa | – | 47.5
293.75 K, 10100 kPa | – | 48.4
293.75 K, 12400 kPa | – | 49.3
293.85 K, 100 kPa | – | 43.4
293.85 K, 700 kPa | – | 43.7
293.85 K, 1700 kPa | – | 44.1
293.85 K, 2700 kPa | – | 44.4
293.85 K, 4200 kPa | – | 44.9
293.85 K, 14500 kPa | – | 49.7
298.15 K, 100 kPa | 1285.51 | –
298.15 K, 2000 kPa | 1286.33 | –
298.15 K, 4000 kPa | 1287.22 | –
298.15 K, 6000 kPa | 1288.13 | –
298.15 K, 8000 kPa | 1289.02 | –
298.15 K, 10000 kPa | 1289.83 | –
298.15 K, 12000 kPa | 1290.7 | –
298.15 K, 14000 kPa | 1291.53 | –
298.15 K, 20000 kPa | 1294.05 | –
298.15 K, 30000 kPa | 1298.17 | –
298.15 K, 40000 kPa | 1302.18 | –
298.15 K, 50000 kPa | 1306.09 | –
298.15 K, 60000 kPa | 1309.95 | –
303.15 K, 100 kPa | 1281.74 | –
303.15 K, 2000 kPa | 1282.57 | –
303.15 K, 4000 kPa | 1283.44 | –
303.15 K, 6000 kPa | 1284.35 | –
303.15 K, 8000 kPa | 1285.26 | –
303.15 K, 10000 kPa | 1286.08 | –
303.15 K, 12000 kPa | 1287 | –
303.15 K, 14000 kPa | 1287.82 | –
303.15 K, 20000 kPa | 1290.4 | –
303.15 K, 30000 kPa | 1294.54 | –
303.15 K, 40000 kPa | 1298.58 | –
303.15 K, 50000 kPa | 1302.56 | –
303.15 K, 60000 kPa | 1306.43 | –
303.95 K, 10300 kPa | – | 34.2
304.05 K, 120 kPa | – | 30.9
304.05 K, 680 kPa | – | 31.1
304.05 K, 1730 kPa | – | 31.2
304.05 K, 2710 kPa | – | 31.4
304.05 K, 4300 kPa | – | 32.2
304.05 K, 6340 kPa | – | 32.6
304.05 K, 8250 kPa | – | 33.1
304.05 K, 12210 kPa | – | 34.3
304.05 K, 14300 kPa | – | 35.2
308.15 K, 100 kPa | 1277.93 | –
308.15 K, 2000 kPa | 1278.81 | –
308.15 K, 4000 kPa | 1279.69 | –
308.15 K, 6000 kPa | 1280.58 | –
308.15 K, 8000 kPa | 1281.46 | –
308.15 K, 10000 kPa | 1282.35 | –
308.15 K, 12000 kPa | 1283.22 | –
308.15 K, 14000 kPa | 1284.11 | –
308.15 K, 20000 kPa | 1286.68 | –
308.15 K, 30000 kPa | 1290.85 | –
308.15 K, 40000 kPa | 1294.96 | –
308.15 K, 50000 kPa | 1298.92 | –
308.15 K, 60000 kPa | 1302.82 | –
313.15 K, 100 kPa | 1274.17 | –
313.15 K, 2000 kPa | 1275.04 | –
313.15 K, 4000 kPa | 1275.93 | –
313.15 K, 6000 kPa | 1276.8 | –
313.15 K, 8000 kPa | 1277.73 | –
313.15 K, 10000 kPa | 1278.61 | –
313.15 K, 12000 kPa | 1279.51 | –
313.15 K, 14000 kPa | 1280.39 | –
313.15 K, 20000 kPa | 1283.04 | –
313.15 K, 30000 kPa | 1287.29 | –
313.15 K, 40000 kPa | 1291.42 | –
313.15 K, 50000 kPa | 1295.43 | –
313.15 K, 60000 kPa | 1299.37 | –
313.65 K, 10170 kPa | – | 25.7
313.65 K, 12290 kPa | – | 26
313.65 K, 14100 kPa | – | 26.2
313.75 K, 1760 kPa | – | 23.8
313.75 K, 2730 kPa | – | 24.1
313.75 K, 4350 kPa | – | 24.5
313.75 K, 6270 kPa | – | 24.9
313.75 K, 8230 kPa | – | 25.1
313.85 K, 100 kPa | – | 23.3
313.85 K, 700 kPa | – | 23.4
313.85 K, 10300 kPa | – | 25.6
318.15 K, 100 kPa | 1270.39 | –
318.15 K, 2000 kPa | 1271.3 | –
318.15 K, 4000 kPa | 1272.25 | –
318.15 K, 6000 kPa | 1273.14 | –
318.15 K, 8000 kPa | 1274.05 | –
318.15 K, 10000 kPa | 1274.96 | –
318.15 K, 12000 kPa | 1275.87 | –
318.15 K, 14000 kPa | 1276.72 | –
318.15 K, 20000 kPa | 1279.36 | –
318.15 K, 30000 kPa | 1283.7 | –
318.15 K, 40000 kPa | 1287.8 | –
318.15 K, 50000 kPa | 1291.92 | –
318.15 K, 60000 kPa | 1295.92 | –
323.15 K, 100 kPa | 1266.69 | –
323.15 K, 2000 kPa | 1267.58 | –
323.15 K, 4000 kPa | 1268.52 | –
323.15 K, 6000 kPa | 1269.45 | –
323.15 K, 8000 kPa | 1270.37 | –
323.15 K, 10000 kPa | 1271.28 | –
323.15 K, 12000 kPa | 1272.19 | –
323.15 K, 14000 kPa | 1273.08 | –
323.15 K, 20000 kPa | 1275.76 | –
323.15 K, 30000 kPa | 1280.1 | –
323.15 K, 40000 kPa | 1284.32 | –
323.15 K, 50000 kPa | 1288.41 | –
323.15 K, 60000 kPa | 1292.42 | –
323.65 K, 100 kPa | – | 18.4
323.65 K, 700 kPa | – | 18.6
323.65 K, 1700 kPa | – | 18.7
323.75 K, 1200 kPa | – | 18.5
323.75 K, 2300 kPa | – | 18.7
323.75 K, 4200 kPa | – | 18.9
323.75 K, 4500 kPa | – | 18.9
323.75 K, 6100 kPa | – | 19
323.75 K, 6600 kPa | – | 19.4
323.75 K, 8200 kPa | – | 19.3
323.75 K, 10200 kPa | – | 19.7
323.75 K, 12400 kPa | – | 19.9
323.75 K, 14300 kPa | – | 20.1
